Measured values published in patent US8030498B2, “Benzoylpyrazole compounds and herbicides containing them” (Ishihara Sangyo Kaisha, Ltd., priority 2005, dated 2011).

Assays:
[1] = test system: barnyardgrass (Echinochloa crus-galli L.); experiment: Test Example 1: foliar treatment, growth inhibition rate, barnyardgrass; format: in vivo; conditions: 31 g/ha active ingredient, visually observed 17th to 23rd day after application
Method in brief: (§1)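 Post-emergence foliar spray, pot test; WP/EC formulation in water at 500 L/ha, + 0.1 vol % spreader; leaf stage at treatment: corn 2.0–3.5, green foxtail 1.0–3.0, rice 1.0–2.5, wheat 1.7–3.4; visual % inhibition at 17–23 DAT (0 = untreated, 100 = dead).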

[2] = test system: crabgrass (Digitaria sanguinalis L.); experiment: Test Example 1: foliar treatment, growth inhibition rate, crabgrass; format: in vivo; conditions: 31 g/ha active ingredient, visually observed 17th to 23rd day after application
Method in brief: (§2)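 Visual scoring of growth inhibition, 0% (untreated) to 100% (complete kill), on days 17–23 following post-emergence spray of formulated compound in water (500 L/ha, 0.1 vol % spreader); plants treated at set leaf stages, e.g. corn 2.0–3.5, wheat 1.7–3.4.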

[3] = test system: greenfoxtail (Setaria viridis L.); experiment: Test Example 1: foliar treatment, growth inhibition rate, greenfoxtail; format: in vivo; conditions: 31 g/ha active ingredient, visually observed 17th to 23rd day after application
Method in brief: (§3)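 Potted upland soil; compounds as wettable powders or emulsifiable concentrates diluted in water at 500 L/ha plus 0.1 vol % spreader, foliar-sprayed at defined leaf stages (rice 1.0–2.5, wheat 1.7–3.4, corn 2.0–3.5, greenfoxtail 1.0–3.0). Growth inhibition (0–100%) scored visually 17–23 days after application.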

[4] = test system: redroot pigweed (Amaranthus retroflexus L.); experiment: Test Example 1: foliar treatment, growth inhibition rate, redroot pigweed; format: in vivo; conditions: 31 g/ha active ingredient, visually observed 17th to 23rd day after application
Method in brief: as §2

[5] = test system: velvetleaf (Abutilon theophrasti MEDIC.); experiment: Test Example 1: foliar treatment, growth inhibition rate, velvetleaf; format: in vivo; conditions: 31 g/ha active ingredient, visually observed 17th to 23rd day after application
Method in brief: as §1

rice (Oryza sativa L.) = experiment: Test Example 1: foliar treatment, growth inhibition rate, rice; format: in vivo; conditions: 31 g/ha active ingredient, visually observed 17th to 23rd day after application
Method in brief: as §3

wheat (Triticum spp.) = experiment: Test Example 1: foliar treatment, growth inhibition rate, wheat; format: in vivo; conditions: 31 g/ha active ingredient, visually observed 17th to 23rd day after application
Method in brief: as §3

corn (Zea mays L.) = experiment: Test Example 1: foliar treatment, growth inhibition rate, corn; format: in vivo; conditions: 31 g/ha active ingredient, visually observed 17th to 23rd day after application
Method in brief: as §3

[6] = test system: soybean (Glycine max Merr.); experiment: Test Example 1: foliar treatment, growth inhibition rate, soybean; format: in vivo; conditions: 31 g/ha active ingredient, visually observed 17th to 23rd day after application
Method in brief: as §2

barnyardgrass = experiment: Test Example 2: soil application on the day after sowing, growth inhibition rate, barnyardgrass; format: in vivo, Echinochloa crus-galli L.; conditions: 250 g/ha active ingredient, observed on 19th to 24th day
Source text: (§4) Upland field soil was put into a 1/170,000 hectare pot, and seeds of various plants (barnyardgrass, crabgrass, greenfoxtail, redroot pigweed, prickly sida, velvetleaf, rice, wheat, corn and soybean) were sown. On the day after sowing, wettable powders or emulsifiable concentrates of the compounds of the present invention prepared in accordance with a conventional preparation method, were weighed so that the active ingredients became the prescribed amounts, and diluted with water in an amount corresponding to 500 liter per 1 hectare, followed by soil application with a small sprayer. On the 19th to 24th day after the application, the state of growth of the respective plants was visually observed, and the herbicidal effect was evaluated in accordance with a growth inhibition rate (%) of from 0 (equivalent to the non-treated area) to 100% (complete kill).

crabgrass = experiment: Test Example 2: soil application on the day after sowing, growth inhibition rate, crabgrass; format: in vivo, Digitaria sanguinalis L.; conditions: 250 g/ha active ingredient, observed on 19th to 24th day
Method in brief: (§5)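 Upland soil pots sown with crop and weed seeds; next day wettable powder or emulsifiable concentrate at prescribed active-ingredient amounts, diluted to 500 L/ha water, sprayed onto soil. Growth inhibition scored visually 19–24 days later, 0 (as untreated) to 100% (complete kill).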

greenfoxtail = experiment: Test Example 2: soil application on the day after sowing, growth inhibition rate, greenfoxtail; format: in vivo, Setaria viridis L.; conditions: 250 g/ha active ingredient, observed on 19th to 24th day
Source text: as §4

redroot pigweed = experiment: Test Example 2: soil application on the day after sowing, growth inhibition rate, redroot pigweed; format: in vivo, Amaranthus retroflexus L.; conditions: 250 g/ha active ingredient, observed on 19th to 24th day
Method in brief: as §5

prickly sida = experiment: Test Example 2: soil application on the day after sowing, growth inhibition rate, prickly sida; format: in vivo, Sida spinosa L.; conditions: 250 g/ha active ingredient, observed on 19th to 24th day
Source text: as §4

velvetleaf = experiment: Test Example 2: soil application on the day after sowing, growth inhibition rate, velvetleaf; format: in vivo, Abutilon theophrasti MEDIC.; conditions: 250 g/ha active ingredient, observed on 19th to 24th day
Method in brief: as §5

rice = experiment: Test Example 2: soil application on the day after sowing, growth inhibition rate, rice; format: in vivo, Oryza sativa L.; conditions: 250 g/ha active ingredient, observed on 19th to 24th day
Source text: as §4

wheat = experiment: Test Example 2: soil application on the day after sowing, growth inhibition rate, wheat; format: in vivo, Triticum spp.; conditions: 250 g/ha active ingredient, observed on 19th to 24th day
Source text: as §4

corn = experiment: Test Example 2: soil application on the day after sowing, growth inhibition rate, corn; format: in vivo, Zea mays L.; conditions: 250 g/ha active ingredient, observed on 19th to 24th day
Method in brief: as §5

soybean = experiment: Test Example 2: soil application on the day after sowing, growth inhibition rate, soybean; format: in vivo, Glycine max Merr.; conditions: 250 g/ha active ingredient, observed on 19th to 24th day
Source text: as §4

[7] = test system: prickly sida (Sida spinosa L.); experiment: Test Example 1: foliar treatment, growth inhibition rate, prickly sida; format: in vivo; conditions: 31 g/ha active ingredient, visually observed 17th to 23rd day after application
Method in brief: as §2

SMILES: CCOC(=O)c1c(S(C)(=O)=O)ccc(C(=O)c2cnn(CC)c2OC(=O)SC)c1C [compound 62]
- Growth inhibition rate (%) Barnyardgrass [1]: 100%
- Growth inhibition rate (%) Crabgrass [2]: 100%
- Growth inhibition rate (%) Greenfoxtail [3]: 100%
- Growth inhibition rate (%) redroot pigweed [4]: 100%
- Growth inhibition rate (%) Velvetleaf [5]: 95%
- Growth inhibition rate (%) Rice (rice (Oryza sativa L.)): 80%
- Growth inhibition rate (%) Wheat (wheat (Triticum spp.)): 50%
- Growth inhibition rate (%) Corn (corn (Zea mays L.)): 10%
- Growth inhibition rate (%) Soybean [6]: 90%
- Growth inhibition rate (%) Barnyardgrass (barnyardgrass): 80%
- Growth inhibition rate (%) Crabgrass (crabgrass): 95%
- Growth inhibition rate (%) Greenfoxtail (greenfoxtail): 95%
- Growth inhibition rate (%) redroot pigweed (redroot pigweed): 100%
- Growth inhibition rate (%) Prickly sida (prickly sida): 90%
- Growth inhibition rate (%) Velvetleaf (velvetleaf): 90%
- Growth inhibition rate (%) Rice (rice): 70%
- Growth inhibition rate (%) Wheat (wheat): 30%
- Growth inhibition rate (%) Corn (corn): 0%
- Growth inhibition rate (%) Soybean (soybean): 0%

SMILES: CCSC(=O)Oc1c(C(=O)c2ccc(S(C)(=O)=O)c(OCC(OC)OC)c2C)cnn1C [Compound No. 209, 5-(ethylthio)carbonyloxy-1-methylpyrazol-4-yl 3-(2,2-dimethoxyethoxy)-2-methyl-4-(methylsulfonyl)phenyl ketone]
- pest or weed control at 31 g/ha ([1]; Echinochloa crus-galli): 100%
- pest or weed control at 31 g/ha ([2]; Digitaria sanguinalis): 95%
- pest or weed control at 31 g/ha ([3]; Setaria viridis): 98%
- Growth inhibition rate (%) redroot pigweed [4]: 98%
- Growth inhibition rate (%) Prickly sida [7]: 90%
- pest or weed control at 31 g/ha ([5]; Abutilon theophrasti): 100%
- pest or weed control at 31 g/ha (rice (Oryza sativa L.); Oryza sativa): 95%
- pest or weed control at 31 g/ha (wheat (Triticum spp.); Triticum): 0%
- pest or weed control at 31 g/ha (corn (Zea mays L.); Zea mays): 0%
- Growth inhibition rate (%) Soybean [6]: 100%
- inhibition at 250 g/ha (barnyardgrass; Echinochloa crus-galli): 95%
- inhibition at 250 g/ha (crabgrass; Digitaria sanguinalis): 95%
- inhibition at 250 g/ha (greenfoxtail; Setaria viridis): 100%
- inhibition at 250 g/ha (redroot pigweed; Amaranthus retroflexus): 95%
- inhibition at 250 g/ha (prickly sida; Sida spinosa): 30%
- inhibition at 250 g/ha (velvetleaf; Abutilon theophrasti): 50%
- inhibition at 250 g/ha (rice; Oryza sativa): 90%
- inhibition at 250 g/ha (wheat; Triticum aestivum): 20%
- inhibition at 250 g/ha (corn; Zea mays): 0%

SMILES: CCSC(=O)Oc1c(C(=O)c2ccc(S(C)(=O)=O)c(COCC(F)(F)F)c2C)cnn1C [compound 69]
- Growth inhibition rate (%) Barnyardgrass [1]: 95%
- Growth inhibition rate (%) Crabgrass [2]: 98%
- Growth inhibition rate (%) Greenfoxtail [3]: 95%
- Growth inhibition rate (%) redroot pigweed [4]: 85%
- Growth inhibition rate (%) Prickly sida [7]: 70%
- Growth inhibition rate (%) Velvetleaf [5]: 95%
- Growth inhibition rate (%) Rice (rice (Oryza sativa L.)): 80%
- Growth inhibition rate (%) Wheat (wheat (Triticum spp.)): 0%
- Growth inhibition rate (%) Corn (corn (Zea mays L.)): 50%
- Growth inhibition rate (%) Soybean [6]: 98%
- Growth inhibition rate (%) Barnyardgrass (barnyardgrass): 70%
- Growth inhibition rate (%) Crabgrass (crabgrass): 95%
- Growth inhibition rate (%) Greenfoxtail (greenfoxtail): 50%
- Growth inhibition rate (%) redroot pigweed (redroot pigweed): 100%
- Growth inhibition rate (%) Prickly sida (prickly sida): 70%
- Growth inhibition rate (%) Velvetleaf (velvetleaf): 70%
- Growth inhibition rate (%) Rice (rice): 70%
- Growth inhibition rate (%) Wheat (wheat): 0%
- Growth inhibition rate (%) Corn (corn): 0%

SMILES: CCSC(=O)Oc1c(C(=O)c2ccc(S(C)(=O)=O)c(COC)c2C)cnn1C [compound 63]
- Growth inhibition rate (%) Barnyardgrass [1]: 95%
- Growth inhibition rate (%) Crabgrass [2]: 98%
- Growth inhibition rate (%) Greenfoxtail [3]: 100%
- Growth inhibition rate (%) redroot pigweed [4]: 95%
- Growth inhibition rate (%) Velvetleaf [5]: 95%
- Growth inhibition rate (%) Rice (rice (Oryza sativa L.)): 90%
- Growth inhibition rate (%) Wheat (wheat (Triticum spp.)): 10%
- Growth inhibition rate (%) Corn (corn (Zea mays L.)): 0%
- Growth inhibition rate (%) Soybean [6]: 95%
- Growth inhibition rate (%) Barnyardgrass (barnyardgrass): 95%
- Growth inhibition rate (%) Crabgrass (crabgrass): 95%
- Growth inhibition rate (%) Greenfoxtail (greenfoxtail): 90%
- Growth inhibition rate (%) redroot pigweed (redroot pigweed): 90%
- Growth inhibition rate (%) Prickly sida (prickly sida): 80%
- Growth inhibition rate (%) Velvetleaf (velvetleaf): 70%
- Growth inhibition rate (%) Rice (rice): 80%
- Growth inhibition rate (%) Wheat (wheat): 0%
- Growth inhibition rate (%) Corn (corn): 0%
- Growth inhibition rate (%) Soybean (soybean): 0%

SMILES: CCSC(=O)Oc1c(C(=O)c2ccc(S(C)(=O)=O)c(C(=O)SC)c2Cl)cnn1C [compound 31]
- Growth inhibition rate (%) Barnyardgrass [1]: 100%
- Growth inhibition rate (%) Crabgrass [2]: 30%
- Growth inhibition rate (%) Greenfoxtail [3]: 80%
- Growth inhibition rate (%) redroot pigweed [4]: 70%
- Growth inhibition rate (%) Prickly sida [7]: 70%
- Growth inhibition rate (%) Velvetleaf [5]: 60%
- Growth inhibition rate (%) Rice (rice (Oryza sativa L.)): 60%
- Growth inhibition rate (%) Wheat (wheat (Triticum spp.)): 0%
- Growth inhibition rate (%) Corn (corn (Zea mays L.)): 60%
- Growth inhibition rate (%) Soybean [6]: 50%
- Growth inhibition rate (%) Barnyardgrass (barnyardgrass): 60%
- Growth inhibition rate (%) Crabgrass (crabgrass): 65%
- Growth inhibition rate (%) Greenfoxtail (greenfoxtail): 70%
- Growth inhibition rate (%) redroot pigweed (redroot pigweed): 60%
- Growth inhibition rate (%) Prickly sida (prickly sida): 70%
- Growth inhibition rate (%) Velvetleaf (velvetleaf): 60%
- Growth inhibition rate (%) Rice (rice): 60%
- Growth inhibition rate (%) Wheat (wheat): 0%
- Growth inhibition rate (%) Corn (corn): 0%

SMILES: CCn1ncc(C(=O)c2ccc(S(C)(=O)=O)c(C(=O)OC)c2C)c1OC(=O)SC [compound 4]
- Growth inhibition rate (%) Barnyardgrass [1]: 95%
- Growth inhibition rate (%) Crabgrass [2]: 95%
- Growth inhibition rate (%) Greenfoxtail [3]: 100%
- Growth inhibition rate (%) Prickly sida [7]: 80%
- Growth inhibition rate (%) Velvetleaf [5]: 95%
- Growth inhibition rate (%) Rice (rice (Oryza sativa L.)): 100%
- Growth inhibition rate (%) Wheat (wheat (Triticum spp.)): 50%
- Growth inhibition rate (%) Corn (corn (Zea mays L.)): 5%
- Growth inhibition rate (%) Soybean [6]: 95%
- Growth inhibition rate (%) Barnyardgrass (barnyardgrass): 80%
- Growth inhibition rate (%) Crabgrass (crabgrass): 100%
- Growth inhibition rate (%) Greenfoxtail (greenfoxtail): 70%
- Growth inhibition rate (%) redroot pigweed (redroot pigweed): 100%
- Growth inhibition rate (%) Prickly sida (prickly sida): 70%
- Growth inhibition rate (%) Velvetleaf (velvetleaf): 60%
- Growth inhibition rate (%) Rice (rice): 70%
- Growth inhibition rate (%) Wheat (wheat): 0%
- Growth inhibition rate (%) Corn (corn): 0%
- Growth inhibition rate (%) Soybean (soybean): 50%

SMILES: COC(=O)c1c(S(C)(=O)=O)ccc(C(=O)c2cnn(C)c2OC(=O)SC)c1Cl [compound 29]
- Growth inhibition rate (%) Barnyardgrass [1]: 80%
- Growth inhibition rate (%) Crabgrass [2]: 50%
- Growth inhibition rate (%) Greenfoxtail [3]: 50%
- Growth inhibition rate (%) redroot pigweed [4]: 70%
- Growth inhibition rate (%) Prickly sida [7]: 60%
- Growth inhibition rate (%) Velvetleaf [5]: 65%
- Growth inhibition rate (%) Rice (rice (Oryza sativa L.)): 40%
- Growth inhibition rate (%) Wheat (wheat (Triticum spp.)): 0%
- Growth inhibition rate (%) Corn (corn (Zea mays L.)): 10%
- Growth inhibition rate (%) Soybean [6]: 60%
- Growth inhibition rate (%) Barnyardgrass (barnyardgrass): 50%
- Growth inhibition rate (%) Crabgrass (crabgrass): 10%
- Growth inhibition rate (%) Greenfoxtail (greenfoxtail): 40%
- Growth inhibition rate (%) Prickly sida (prickly sida): 60%
- Growth inhibition rate (%) Velvetleaf (velvetleaf): 50%
- Growth inhibition rate (%) Rice (rice): 10%
- Growth inhibition rate (%) Wheat (wheat): 0%
- Growth inhibition rate (%) Corn (corn): 0%
- Growth inhibition rate (%) Soybean (soybean): 40%
